Assay [1] deals with T1, native aSyn aggregates in A30P transgenic mouse brain sections (Homo sapiens, UniProt P37840, A30P).
T1 construct: from tissue; host or cells: brain sections (midbrain and pons as ROI) of A30P transgenic mice, line B6.D2-Tg(Thy1-SNCA*30P)31Pjk
The assay can be described thus: aSyn in vitro displacement assay ([3H]Example-3 autoradiography). Format: binding, mutant human aSyn gene). Particulars: 3 nM [3H]Example-3, A30P transgenic mouse brain sections; for inhibition at 1 µM: 1 μM compound, read-out: PCT_INHIB A30P @ 1 μM (% displacement of [3H]Example-3); for inhibition at 3 µM: 3 μM compound, read-out: PCT_INHIB A30P @ 3 μM.

Assay [2] deals with T2, native Aβ aggregates in human AD brain tissue sections (Homo sapiens, UniProt P05067).
T2 construct: native Aβ aggregates in human AD brain tissue samples; from tissue; host or cells: human AD brain tissue sections
T2 sequence (P05067 672-713 limits assumed): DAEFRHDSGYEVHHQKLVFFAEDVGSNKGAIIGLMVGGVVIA
The assay can be described thus: Aβ in vitro displacement assay (selectivity counterscreen, [3H]Example 3 autoradiography). Conditions: 3 nM [3H]Example 3, human AD brain sections; for inhibition at 1 µM: 1 μM compound, read-out: sel. counterscreen PCT_INHIB AD @ 1 μM (% displacement of [3H]Example 3); for inhibition at 3 µM: 3 μM compound, read-out: sel. counterscreen PCT_INHIB AD @ 3 μM. The assay is classed as binding. On the technique in general: A counterscreen serves to expose hits that act by an unwanted route or on another target.

Regarding `COc1ccc(C(=O)Nc2ccc(N3CCN(c4ccc(F)cc4)CC3)cc2)cc1` [Example 105, N-[4-[4-(4-Fluorophenyl)piperazin-1-yl]phenyl]-4-methoxy-benzamide], the inhibition at 1 µM in assay [1] is 100%; in assay [2], 98%.
Take `O=C(Nc1ccc(N2CCN(c3ccccn3)CC2)cc1)c1ccc(OCC(O)CF)cc1` (racemic) [Example 125, rac-4-(3-Fluoro-2-hydroxypropoxy)-N-(4-(4-(pyridin-2-yl)piperazin-1-yl)phenyl)benzamide]: the inhibition at 1 µM in assay [1] worked out at 82%; in assay [2], 92%.
Regarding `N#Cc1ccc(N2CCN(c3ccc(NC(=O)c4ccc(O)cc4)cc3)CC2)nc1` [Example 108, N-(4-(4-(5-cyanopyridin-2-yl)piperazin-1-yl)phenyl)-4-hydroxybenzamide], the values for the inhibition at 1 µM in assay [1] and in assay [2] were 81% and 92%, respectively.
Consider `COc1ccc(C(=O)Nc2ccc(N3CCN(c4cccnc4)CC3)cc2)nc1` [Example 77, 5-Methoxy-N-(4-(4-(pyridin-3-yl)piperazin-1-yl)phenyl)picolinamide], for which the inhibition at 1 µM came to 98% in assay [1] and 96% in assay [2].
For `N#Cc1ccc(N2CCN(c3ccc(NC(=O)c4ccc(OCCOCCOCCF)cc4)cc3)CC2)cc1` [Example 123, N-[4-[4-(4-Cyanophenyl)piperazin-1-yl]phenyl]-4-[2-[2-(2-fluoroethoxy)ethoxy]ethoxy]benzamide] the same measures were 80% and 95%.
With `COc1ccc(C(=O)Nc2ccc(N3CCN(c4ccncn4)CC3)cc2)cc1` [Example 56, 4-Methoxy-N-{4-[4-(pyrimidin-4-yl)piperazin-1-yl]phenyl}benzamide], the inhibition at 1 µM in assay [1] was found to be 88%; in assay [2], 98%.
With `N#Cc1ccc(N2CCN(c3ccc(NC(=O)c4ccc(OCF)cc4)cc3)CC2)nc1` [Example 136, N-(4-(4-(5-cyanopyridin-2-yl)piperazin-1-yl)phenyl)-4-(fluoromethoxy) benzamide], the figures for the inhibition at 1 µM in assay [1] and in assay [2] were 91% and 92%, respectively.
On to `COc1ccc(C(=O)Nc2ccc(N3CCN(c4ccccn4)CC3)cc2)c(F)c1` [Example 1, 2-Fluoro-4-methoxy-N-(4-(4-(pyridin-2-yl)piperazin-1-yl)phenyl)benzamide], for which the inhibition at 1 µM in assay [1] turned out to be 100%; in assay [2], 95%.
Take `COc1ccc(C(=O)Nc2ccc(N3CCN(c4cc(Cl)c(C#N)cn4)CC3)cc2)cc1` [Example 152, N-(4-(4-(4-Chloro-5-cyanopyridin-2-yl)piperazin-1-yl)phenyl)-4-methoxybenzamide]: the inhibition at 1 µM in assay [1] stood at 90%; in assay [2], 88%.
On to `COc1ccc(C(=O)Nc2ccc(N3CCN(c4ccc(C#N)cc4)CC3)cc2)nc1` [Example 166, N-(4-(4-(4-Cyanophenyl)piperazin-1-yl)phenyl)-5-methoxypicolinamide], for which the inhibition at 1 µM in assay [1] is 81%; in assay [2], 70%.
With `COc1ccc(C(=O)Nc2cnc(N3CCN(c4ccccn4)CC3)cn2)c(F)c1` [Example 84, 2-Fluoro-4-methoxy-N-(5-(4-(pyridin-2-yl)piperazin-1-yl)pyrazin-2-yl)benzamide], the inhibition at 1 µM was 88% in assay [1] and 100% in assay [2].
`CN(C)c1ccc(C(=O)Nc2ccc(N3CCN(c4ccccn4)CC3)nc2)cc1` [Example 31, 4-(Dimethylamino)-N-[6-[4-(2-pyridyl)piperazin-1-yl]-3-pyridyl]benzamide]: the results for the inhibition at 1 µM in assay [1] and in assay [2] were 90% and 98%, respectively.
Turning to `COc1ccc(C(=O)Nc2ccc(N3CCN(c4ncc(C#N)cn4)CC3)cc2)cc1` [Example 143, N-(4-(4-(5-Cyanopyrimidin-2-yl)piperazin-1-yl)phenyl)-4-methoxybenzamide], the inhibition at 1 µM in assay [1] and in assay [2] was 91% throughout.
Take `COc1ccc(C(=O)Nc2cnc(N3CCN(c4ccccn4)CC3)nc2)c(C)c1` [Example 72, 4-Methoxy-2-methyl-N-(2-(4-(pyridin-2-yl)piperazin-1-yl)pyrimidin-5-yl)benzamide]: the inhibition at 1 µM was determined as 80% in assay [1] and 86% in assay [2].
On to `COc1ccc(C(=O)Nc2ccc(N3CCN(c4nccs4)CC3)cc2)cc1` [Example 13, 4-Methoxy-N-[4-[4-(1,3-thiazol-2-yl)piperazin-1-yl]phenyl]benzamide], for which the inhibition at 1 µM came to 90% in assay [1] and 103% in assay [2].
Consider `O=C(Nc1ccc(N2CCN(c3ccccn3)CC2)cc1)c1ccc2c(c1)OCCO2` [Example 14, N-(4-(4-(Pyridin-2-yl)piperazin-1-yl)phenyl)-2,3-dihydrobenzo[b][1,4]dioxine-6-carboxamide], for which the inhibition at 1 µM was determined as 91% in assay [1] and 96% in assay [2].
For `N#Cc1ccc(N2CCN(c3ccc(NC(=O)c4ccc(N5CCOCC5)cc4)cc3)CC2)cc1` [Example 92, N-(4-(4-(4-Cyanophenyl)piperazin-1-yl)phenyl)-4-morpholinobenzamide], the inhibition at 1 µM came to 96% in assay [1] and 86% in assay [2].
For `O=C(Nc1ccc(N2CCN(c3cccnc3)CC2)cc1)c1ccc(OCF)cc1` [Example 134, 4-(fluoromethoxy)-N-(4-(4-(pyridin-3-yl)piperazin-1-yl)phenyl)benzamide], the inhibition at 1 µM is 94% in assay [1] and 93% in assay [2].
For `O=C(Nc1ccc(N2CCN(c3ccccn3)CC2)nn1)c1ccc(N2CCOCC2)cc1` [Example 48, 4-Morpholino-N-[6-[4-(2-pyridyl)piperazin-1-yl]pyridazin-3-yl]benzamide] the same measures were 97% and 93%.
For `O=C(Nc1cnc(N2CCN(c3ccccn3)CC2)cn1)c1ccc(N2CCOCC2)cc1` [Example 88, 4-Morpholino-N-(5-(4-(pyridin-2-yl)piperazin-1-yl)pyrazin-2-yl)benzamide] the same measures were 87% and 71%.
On to `CN(C)c1ccc(C(=O)Nc2cnc(N3CCN(c4ccccn4)CC3)cn2)cc1` [Example 86, 4-(Dimethylamino)-N-(5-(4-(pyridin-2-yl)piperazin-1-yl)pyrazin-2-yl)benzamide], for which the inhibition at 1 µM was determined as 95% in assay [1] and 100% in assay [2].
On to `COc1ccc(C(=O)Nc2ccc(N3CCN(c4ccc(C#N)cn4)CC3)c(F)c2)cc1` [Example 107, N-[4-[4-(5-Cyano-2-pyridyl)piperazin-1-yl]-3-fluoro-phenyl]-4-methoxy-benzamide], for which the inhibition at 1 µM in assay [1] and in assay [2] was 96% in each case.
`C#CCOc1ccc(C(=O)Nc2ccc(N3CCN(c4ccccn4)CC3)cc2)cc1` [Example 177, 4-Prop-2-ynoxy-N-[4-[4-(2-pyridyl)piperazin-1-yl]phenyl]benzamide]: the inhibition at 3 µM was 96% in assay [1] and 97% in assay [2].
For `C#Cc1ccc(N2CCN(c3ccc(NC(=O)c4ccc(OC)cc4)cc3)CC2)nc1` [Example 176, N-[4-[4-(5-Ethynyl-2-pyridyl)piperazin-1-yl]phenyl]-4-methoxy-benzamide] the same measures were 102% and 97%.
Consider `COc1ccc(C(=O)Nc2ccc(N3CCN(c4ccc(C#N)cc4)CC3)cn2)cc1` [Example 96, N-(5-(4-(4-Cyanophenyl)piperazin-1-yl)pyridin-2-yl)-4-methoxybenzamide], for which the inhibition at 1 µM in assay [1] was found to be 84%; in assay [2], 66%.
Take `COc1ccc(C(=O)Nc2ccc(N3CCN(c4ccc(C#N)cn4)CC3)cc2)cc1OC` [Example 159, N-(4-(4-(5-Cyanopyridin-2-yl)piperazin-1-yl)phenyl)-3,4-dimethoxybenzamide]: the inhibition at 1 µM in assay [1] turned out to be 88%; in assay [2] it was 89%.
Regarding `COc1ccc(C(=O)Nc2ccc(N3CCN(c4ccc(C#N)cc4)CC3)cc2)cc1F` [Example 163, N-(4-(4-(4-Cyanophenyl)piperazin-1-yl)phenyl)-3-fluoro-4-methoxybenzamide], the values for the inhibition at 1 µM in assay [1] and in assay [2] were 94% and 92%, respectively.
For the molecule `COc1ccc(C(=O)Nc2ccc(N3CCN(c4ccc(C#N)nc4)CC3)cc2)cc1` [Example 154, N-(4-(4-(6-Cyanopyridin-3-yl)piperazin-1-yl)phenyl)-4-methoxybenzamide], the inhibition at 1 µM in assay [1] came to 98%; in assay [2], 96%.
Take `COc1ccc(C(=O)Nc2ccc(N3CCN(c4ncccc4F)CC3)cc2)cc1` [Example 148, N-(4-(4-(3-Fluoropyridin-2-yl)piperazin-1-yl)phenyl)-4-methoxybenzamide]: the inhibition at 1 µM in assay [1] was 86%; in assay [2] it was 89%.
Consider `COc1ccc(C(=O)Nc2ccc(N3CCN(c4cccc(C#N)c4)CC3)cc2)cc1` [Example 103, N-[4-[4-(3-Cyanophenyl)piperazin-1-yl]phenyl]-4-methoxy-benzamide], for which the inhibition at 1 µM in assay [1] came out at 100%; in assay [2] it was 99%.
For `COc1ccc(C(=O)Nc2ccc(N3CCN(c4cccc(F)n4)CC3)cc2)cc1` [Example 146, N-(4-(4-(6-Fluoropyridin-2-yl)piperazin-1-yl)phenyl)-4-methoxybenzamide] the same measures were 95% and 91%.
For the molecule `O=C(Nc1ccc(N2CCN(c3ccccn3)CC2)cc1)c1ccccc1F` [Example 9, 2-Fluoro-N-(4-(4-(pyridin-2-yl)piperazin-1-yl)phenyl)benzamide], the figures for the inhibition at 1 µM in assay [1] and in assay [2] were 82% and 96%, respectively.

Values taken from US11541132B2, “Radiolabeled compounds” (Hoffmann-La Roche Inc., priority 2017, dated 2023).
